Consider 4 molecules from ChEMBL document CHEMBL1201862, “PubChem BioAssay data set” (2004).

Activity calls are given as the source filed them.

In one test the target is Bcl-2-like protein 10 (Homo sapiens, UniProt Q9HD36). Kind of test: Biochemical TR3 FP assay of Bcl-B inhibitor potency, EC50 (AID 1243). The test is classed as functional.
A short description of test [1]: Shn3 3'UTR reporter inhibitors, dose response, cell-based, Clone20 osteoblasts, firefly luciferase, cherry-picked (AID 624132).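 Further: firefly luciferase luminescence from reporter carrying the Shn3 3'UTR in osteoblasts.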 Format: functional.
Test [2] in a line: inhibitors of clade B AD8 Env fusion, dose response, cell-based, cherry-pick (AID 652062).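 Further: luciferase signal from cell-cell fusion driven by HIV-1 clade B AD8 Env; potency is for inhibitors of fusion seen as a drop in luminescence.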 Format: functional.
A short description of test [3]: ZM109 Env clade C HIV-1 fusion inhibitors, dose response, HeLa effector, CEM target cells, luciferase, cherry-pick (AID 652058). The test is classed as functional, cell-based.
A short description of test [4]: non-specific cell cytotoxicity, dose response, cytotoxicity control for PAX8 inhibitor project, plate reader, dry powder samples (AID 743021). The test is classed as functional, cell-based.
A further test concerns the target Paired box protein Pax-8 (Homo sapiens, UniProt Q06710). Description: inhibitors of PAX8-driven TPO luciferase reporter, dose response, RMG-I cells, cherry-pick (AID 687027).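 Further: luciferase reporter driven by Pax8 target thyroperoxidase promoter measured by SteadyGlo luminescence.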 The test is classed as functional, cell-based.
A short description of test [5]: Luminescence-based counterscreen assay for KLF5 inhibitors: dose response cell-based high throughput screening assay to identify cytotoxic compounds using the IEC-6 intestinal epithelial cell line. [Related pubchem assays: 1700 (Primary screen.), 1834 (Confirmation screen.), 1858 (Summary AID.), 1905 (Counterscreen.)]. Format: functional.
Test [6] has as its target T1, Microphthalmia-associated transcription factor (Homo sapiens, UniProt O75030).
T1 sequence (O75030 whole entry): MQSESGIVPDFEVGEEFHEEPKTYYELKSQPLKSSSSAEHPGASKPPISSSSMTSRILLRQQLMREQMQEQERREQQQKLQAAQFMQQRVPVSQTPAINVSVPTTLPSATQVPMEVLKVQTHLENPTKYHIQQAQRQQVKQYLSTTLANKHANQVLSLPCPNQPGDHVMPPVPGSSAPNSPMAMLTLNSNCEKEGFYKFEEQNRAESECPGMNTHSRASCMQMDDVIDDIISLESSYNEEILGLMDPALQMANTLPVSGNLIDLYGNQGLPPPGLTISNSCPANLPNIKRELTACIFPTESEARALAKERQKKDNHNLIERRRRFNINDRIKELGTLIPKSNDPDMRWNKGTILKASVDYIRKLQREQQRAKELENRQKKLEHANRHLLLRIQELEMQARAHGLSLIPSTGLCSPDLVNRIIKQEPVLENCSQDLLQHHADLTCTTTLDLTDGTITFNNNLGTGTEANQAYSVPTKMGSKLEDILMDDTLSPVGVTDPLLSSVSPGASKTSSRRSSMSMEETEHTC
Description: TRPM1 promoter luciferase signal decrease, dose response, MITF inhibitor project, cell-based, SK-MEL-5, cherry-picked, set 3 (AID 493073).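 Further: SK-MEL-5 melanoma cells with luciferase driven by the MITF target TRPM1 promoter.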 The test is classed as functional.

Test [7] addresses T2, Heat shock factor protein 1 (Mus musculus, UniProt P38532).
T2 sequence (P38532 whole entry): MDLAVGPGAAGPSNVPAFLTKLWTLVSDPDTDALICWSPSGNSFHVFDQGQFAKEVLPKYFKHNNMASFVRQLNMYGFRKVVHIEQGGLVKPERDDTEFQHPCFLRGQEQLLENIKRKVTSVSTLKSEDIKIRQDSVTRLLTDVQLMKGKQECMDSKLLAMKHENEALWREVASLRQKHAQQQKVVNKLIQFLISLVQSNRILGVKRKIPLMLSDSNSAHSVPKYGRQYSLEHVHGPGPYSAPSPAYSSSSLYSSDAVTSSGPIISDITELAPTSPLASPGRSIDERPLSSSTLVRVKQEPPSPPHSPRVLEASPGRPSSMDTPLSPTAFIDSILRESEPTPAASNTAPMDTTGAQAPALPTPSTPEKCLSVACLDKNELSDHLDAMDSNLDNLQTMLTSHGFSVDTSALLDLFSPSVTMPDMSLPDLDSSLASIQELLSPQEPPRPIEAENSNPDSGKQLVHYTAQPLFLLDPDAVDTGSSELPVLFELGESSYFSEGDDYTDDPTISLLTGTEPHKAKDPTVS
Description: inhibition of MG132-induced HSE-luciferase signal, confirmation, cell-based, NIH3T3, luminescence, dose retest (AID 2382).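 Further: NIH3T3 fibroblasts with HSF1-driven luciferase reporter stressed by proteasome inhibitor MG132; luminescence from HSF1-driven luciferase expression after 8 hours of MG132 stress.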 The test is classed as functional.

Test [8] is described as follows: cytotoxicity in HEK-293T cells, dose response, cytotoxicity control for TCR NF-kB inhibitor project, luminescence, T-cell screen hits (AID 489026).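 Further: cells exposed to compound about 14 hours before the viability readout.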 Format: functional, cell-based.
The nature of test [9]: off-target signal loss in HeLa-CEM21 co-culture – HeLa F-luc CTL cells, cherry-picked, counter-screen for HIV-1 Env fusion inhibitor project, dose response (AID 652040).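 Further: potency for signal decrease marking cytotoxic or nonspecific inhibition.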 The test is classed as functional, cell-based. A general note: The purpose of a counterscreen is to sort out artefacts and off-target activity.
A short description of test [10]: reduction of Shn3 3'UTR firefly luciferase signal, dose response, Schnurri-3 inhibitor project, cell-based, Clone20 osteoblasts, cherry-pick, set 2 (AID 720490).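 Further: actives lower the luminescence signal as inhibitors.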 The test is classed as functional.
Test [11] is described as follows: inhibitors of HIV Env-driven cell fusion, dose response, cherry-pick (AID 652057). Format: functional, cell-based.
The target in test [12] is Luciferin 4-monooxygenase (Photinus pyralis, UniProt P08659). Description: Counter Screen for Luciferase-based Assay Positives. [Related pubchem assays: 620, 618, 411 ].
Luciferin 4-monooxygenase, sequence (P08659 whole entry): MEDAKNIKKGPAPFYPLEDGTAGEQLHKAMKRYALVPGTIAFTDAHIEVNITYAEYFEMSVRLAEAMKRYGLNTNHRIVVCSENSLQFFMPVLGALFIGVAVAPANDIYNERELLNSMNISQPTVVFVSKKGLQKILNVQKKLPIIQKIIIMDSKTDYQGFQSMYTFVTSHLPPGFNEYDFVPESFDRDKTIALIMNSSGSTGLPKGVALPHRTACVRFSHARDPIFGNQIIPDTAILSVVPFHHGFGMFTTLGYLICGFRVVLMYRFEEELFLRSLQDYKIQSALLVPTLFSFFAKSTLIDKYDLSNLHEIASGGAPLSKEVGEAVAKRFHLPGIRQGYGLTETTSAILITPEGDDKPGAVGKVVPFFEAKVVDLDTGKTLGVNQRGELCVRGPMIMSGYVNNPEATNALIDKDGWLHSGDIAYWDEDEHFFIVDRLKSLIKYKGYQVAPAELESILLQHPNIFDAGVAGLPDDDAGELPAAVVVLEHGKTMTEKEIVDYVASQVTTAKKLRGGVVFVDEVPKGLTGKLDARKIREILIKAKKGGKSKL
The subject of a further test is HT-1080. Description: cytotoxicity in HT1080 fibrosarcoma cells, cell-based, fluorescence readout (AID 620). The test is classed as functional. Particulars: Homo sapiens.
Test [13] can be described thus: A Cell Based Secondary Assay To Explore Cytotoxicity of Compounds that Sensitize Mycobacterium Tuberculosis to Beta-Lactam Antibiotics. The test is classed as functional.
Another test concerns HEK293. Description: Fluorescence-based counterscreen for potentiators or agonists of NPY-Y2: cell-based high-throughput dose response assay to identify inhibitors of cyclic nucleotide gated ion channel (CNGC) activity. In this assay, the parental HEK293 cell line transfected with a cyclic-nucleotide gated ion channel (CNGC)-based cAMP sensor is used to measure inhibition of isoproterenol-induced CNGC activity by test compound. Format: functional. The following applies: Homo sapiens.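 Further: stimulus is 1 µM isoproterenol at EC100 plus PDE inhibitor Ro 20-1724 at 25 µM.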

The target in test [14] is T2, Heat shock factor protein 1. Description: HSF1 potentiators in luciferase reporter cells, confirmation, cell-based, NIH3T3, luminescence, dose retest (AID 435004).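 Further: stress induced by proteasome inhibitor MG132 added 30 min after compound; luciferase reporter driven by HSF1 response element in NIH3T3 cells; actives raise luminescence as potentiators of the MG132 stress response.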 The test is classed as functional. For orientation: In a reporter assay the amount or activity of a reporter protein is the signal.
Test [15] has as its target Neuropeptide Y receptor type 1 (Homo sapiens, UniProt P25929). Kind of test: Fluorescence-based counterscreen for agonists of NPY-Y2: cell-based high-throughput dose response assay for agonists of NPY-Y1. Format: functional.
Test [16] addresses Neuropeptide Y receptor type 2 (Homo sapiens, UniProt P49146). Kind of test: Fluorescence-based cell-based high-throughput dose response assay for agonists of NPY-Y2. [Related pubchem assays: 1703 (Screening assay (CNGC inhibitors).), 1359 (Screening assay (NPY-Y2 potentiators or agonists).), 1304 (Screening assay (NPY-Y1 potentiators or agonists).), 1710 (Screening assay (NPY-Y2 agonists).), 1791 (Summary AID.)]. The test is classed as functional.

As usually defined, the EC50 is the midpoint of the concentration-response curve. In general, AC50 refers to the concentration at which the activity in the assay is half-maximal. The term IC50 denotes the concentration that gives 50% inhibition. One may read the CC50 as the concentration at which the toxic effect on the cells reaches its halfway point.

Neuropeptide Y receptor type 1, sequence (P25929 whole entry): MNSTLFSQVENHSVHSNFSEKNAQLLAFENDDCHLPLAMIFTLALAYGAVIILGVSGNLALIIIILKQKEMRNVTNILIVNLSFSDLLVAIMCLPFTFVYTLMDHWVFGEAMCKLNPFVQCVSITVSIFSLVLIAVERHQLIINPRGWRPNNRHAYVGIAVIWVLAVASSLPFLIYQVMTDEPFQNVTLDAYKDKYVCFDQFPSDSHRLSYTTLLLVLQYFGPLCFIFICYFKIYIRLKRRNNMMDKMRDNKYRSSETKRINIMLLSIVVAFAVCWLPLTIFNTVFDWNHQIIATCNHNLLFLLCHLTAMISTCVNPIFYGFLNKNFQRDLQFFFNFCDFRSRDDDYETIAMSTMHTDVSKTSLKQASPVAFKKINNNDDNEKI
Paired box protein Pax-8, sequence (Q06710 whole entry): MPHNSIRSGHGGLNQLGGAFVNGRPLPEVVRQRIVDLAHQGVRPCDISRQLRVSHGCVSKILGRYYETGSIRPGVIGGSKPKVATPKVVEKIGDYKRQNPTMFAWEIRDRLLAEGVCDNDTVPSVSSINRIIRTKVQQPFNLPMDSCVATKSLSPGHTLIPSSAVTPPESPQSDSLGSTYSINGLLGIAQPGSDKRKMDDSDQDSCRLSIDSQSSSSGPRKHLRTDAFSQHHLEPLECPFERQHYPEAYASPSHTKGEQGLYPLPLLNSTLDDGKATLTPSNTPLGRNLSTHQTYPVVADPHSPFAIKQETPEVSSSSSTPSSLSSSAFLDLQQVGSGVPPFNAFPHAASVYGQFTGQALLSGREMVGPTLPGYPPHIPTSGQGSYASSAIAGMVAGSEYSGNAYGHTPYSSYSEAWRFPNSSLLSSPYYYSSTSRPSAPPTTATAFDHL
Neuropeptide Y receptor type 2, sequence (P49146 whole entry): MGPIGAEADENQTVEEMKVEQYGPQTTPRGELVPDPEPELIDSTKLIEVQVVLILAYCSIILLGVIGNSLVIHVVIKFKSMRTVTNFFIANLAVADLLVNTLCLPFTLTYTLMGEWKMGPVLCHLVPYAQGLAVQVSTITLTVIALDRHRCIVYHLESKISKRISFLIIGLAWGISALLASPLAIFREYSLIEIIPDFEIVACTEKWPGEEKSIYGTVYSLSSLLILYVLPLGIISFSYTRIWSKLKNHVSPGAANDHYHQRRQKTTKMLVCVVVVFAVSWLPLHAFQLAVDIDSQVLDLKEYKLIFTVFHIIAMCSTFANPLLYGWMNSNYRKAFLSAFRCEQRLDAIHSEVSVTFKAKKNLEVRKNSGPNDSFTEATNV
Bcl-2-like protein 10, sequence (Q9HD36 whole entry): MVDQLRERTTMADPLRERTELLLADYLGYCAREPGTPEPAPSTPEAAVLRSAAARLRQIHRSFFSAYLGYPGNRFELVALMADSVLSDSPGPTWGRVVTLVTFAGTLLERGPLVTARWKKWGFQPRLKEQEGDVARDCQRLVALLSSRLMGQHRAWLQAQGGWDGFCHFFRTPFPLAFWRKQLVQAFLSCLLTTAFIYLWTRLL

With `CN(C)c1ccc(NC(=O)/C=C\C(=O)O)cc1`, the concentration for a half-maximal effect (EC50) at Bcl-2-like protein 10 was 20.4 µM (active).
For `Cc1ccc(C(=O)Nc2cnc3ccccc3c2)cc1`, the AC50 in test [1] was 4.04 µM (active); in test [2], 4.14 µM (active); in test [3], 13.9 µM (active); in test [4], 46 µM (active); at Paired box protein Pax-8 it was 3.57 µM (active); in [6], 1.15 µM (active). Further, the AC50 was 9.31 µM (active) in test [9], 2.3 µM (active) in test [10] and 2.29 µM (active) in test [11]. Besides, the results for the IC50 in test [5] and in test [8] were > 39.8 µM (not active) and > 80 µM (inactive), respectively. Further, the results for the EC50 (in test [7]; in test [12]; with HT-1080) were 4.76 µM (active), > 100 µM (not active) and > 50 µM (not active), respectively.
For the molecule `O=S(=O)(Nc1cccc(-c2ccc(N3CCCCCC3)nn2)c1)c1ccccc1Cl`, in test [13], the half-maximal cytotoxic concentration (CC50) was > 40 µM (active).
Consider `COCCCNC(=O)c1cnc2ccc(S(=O)(=O)N3CCc4ccccc43)cc2c1O`, for which the concentration giving a half-maximal response (EC50) was > 35.4 µM (not active) in the test on HEK293, > 260 µM (inactive) in test [14], > 35.4 µM (not active) in [15] and > 35.4 µM (not active) in [16].
